Consider nine compounds from PubChem BioAssay (NCI).

Holding throughout (assay): DTP human tumour cell line panel, 48 h
Assay [1] relates to LOX IMVI melanoma.
In assay [2] the test system is HOP-92 NSCLC.
The test system of assay [3] is MALME-3M melanoma.
The test system of assay [4] is NCI-H522 lung.
The subject of assay [5] is SW-620 colon.
The test system of assay [6] is OVCAR-4 ovarian.
Assay [7] relates to K-562 leukemia.
For assay [8], the system named is SK-MEL-28 melanoma.
Assay [9] concerns SK-OV-3 ovarian.
The subject of assay [10] is SN12C renal.

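These data come from cells grown in 96-well plates and exposed to compound for 48 hours at five concentrations. GI50 marks 50% less growth. Definition used: TGI = concentration required for complete inhibition of growth.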

In the case of `Cc1cc(N(CCC#N)CCC#N)ccc1CC1N=C(c2ccccc2)OC1=O` (stereo not given), the TGI in [1], in assay [2], in assay [3], in assay [4], in assay [5] and in [6] was above 100 µM in each case. For the same compound, the TGI in [7], in assay [8], in assay [9] and in assay [10] was above 100 µM in each case.
Turning to `COC1/C=C/OC2(C)Oc3c(C)c(O)c4c(O)c(c(C=NOC(c5ccccc5)c5ccccc5)c(O)c4c3C2=O)NC(=O)/C(C)=C/C=C/C(C)C(O)C(C)C(O)C(C)C(OC(C)=O)C1C` (stereo not given), the GI50 (as a rule, the concentration giving 50% growth inhibition) in assay [1] was 0.913 µM; in assay [2] it was 0.972 µM; in assay [3], 1.19 µM; in [4], 1.18 µM; in assay [5] it was 1.35 µM; in assay [6] it was 1.63 µM. Besides, the GI50 in assay [7] is 2.17 µM; in assay [8], 0.959 µM; in assay [9], 1.88 µM; in [10] it was 1.31 µM. Moreover, the concentration for total growth inhibition (TGI) – broadly, the concentration at which net growth stops – stood at 1.82 µM in [1]; 2.74 µM in assay [2]; 3.38 µM in assay [3]; 3.97 µM in assay [4]; 3.72 µM in assay [5]; 6.01 µM in [6]. In addition, the TGI was found to be 50 µM in assay [7], 2.08 µM in assay [8], 6.67 µM in assay [9] and 3.53 µM in assay [10].
With `[Au+].c1c[n-]cn1.c1ccc([PH+](c2ccccc2)c2ccccc2)cc1`, the GI50 in assay [1] is 4.03 µM; in [2] it was 2.36 µM; in assay [3] it was 1.96 µM; in assay [4], 1.19 µM; in assay [5] it was 1.81 µM; in [6] it was 13.4 µM. Moreover, the GI50 is 2.61 µM in assay [7], 2.29 µM in [8], 16.8 µM in [9] and 10.3 µM in [10]. In addition, the TGI amounted to 15.2 µM in [1]; 4.79 µM in [2]; 4.25 µM in [3]; 2.93 µM in assay [4]; 3.28 µM in assay [5]; 36.7 µM in assay [6]. The TGI in assay [7] came out at 30.4 µM; in assay [8] it was 6.87 µM; in [9], 30.4 µM; in [10], 27.4 µM.
With `O=C1NC(Cc2ccccc2)C(=O)N2CCCC12` (stereo not given), the TGI in [1], in assay [2], in assay [3], in assay [4], in [5] and in assay [6] was above 100 µM each time. In addition, the TGI in assay [7], in assay [8], in assay [9] and in [10] was above 100 µM each time.
In the case of `CCN(CC)CCNC(=O)C(Cl)=C1C(Cl)=C(Cl)C(Cl)=C1Cl`, the GI50 in assay [1] was 1.83 µM; in [2], 2.37 µM; in assay [3], 11.9 µM; in assay [4], 1.47 µM; in assay [5], 3.25 µM; in assay [6], 4.17 µM. Further, the GI50 in assay [7] was 3.56 µM; in assay [8], 2.45 µM; in assay [9], 3.21 µM; in assay [10] it was 4.03 µM. In addition, the TGI in assay [1] is 4.53 µM; in assay [2] it was 8.62 µM; in [3], 47.3 µM; in assay [4] it was 3.21 µM; in [5], 12.5 µM; in assay [6], 15.6 µM. Further, the TGI is above 100 µM in assay [7], 7.11 µM in assay [8], above 100 µM in assay [9] and 49.8 µM in assay [10].
`COc1ccc2c(c1)C(=O)c1c-2c(OCCN2CCCCC2)nc2ccc(OC)cc12`: the GI50 is 0.42 µM in [1]; 2.41 µM in assay [2]; 1.27 µM in assay [3]; 0.523 µM in assay [4]; 0.269 µM in assay [5]; 1.36 µM in [6]. Besides, the GI50 in assay [7] was 0.413 µM; in [8] it was 3.52 µM; in assay [9] it was 2.02 µM; in assay [10], 0.429 µM. Besides, the TGI in assay [1] was 1.73 µM; in assay [2] it was 19.7 µM; in assay [3], 4.47 µM; in assay [4] it was 2.11 µM; in assay [5], 2.19 µM; in assay [6] it was 10.7 µM. The TGI in [7] came to 2.76 µM; in assay [8] it was 12.8 µM; in [9] it was 16.4 µM; in [10], 10.1 µM.
`O=C(O)c1c[nH]c2c(ccc3[nH]cc(C(=O)O)c(=O)c32)c1=O`: the TGI in assay [1], in assay [2], in [3], in assay [4], in assay [5] and in assay [6] was above 100 µM throughout. In addition, the TGI in assay [7], in assay [8], in assay [9] and in [10] was above 100 µM each time.
Take `N/C(=N/N=C/c1cccc(F)c1)NO`: the concentration for total growth inhibition (TGI) in assay [1] is 97.7 µM; in [2], above 100 µM; in assay [3] it was above 100 µM; in assay [4], 96.1 µM; in [5] it was above 100 µM; in [6] it was above 100 µM. Also, the TGI in [7], in [8], in assay [9] and in assay [10] was above 100 µM in each case.
Turning to `O=[P+](O)c1cccnc1`, the concentration for total growth inhibition (TGI) in assay [1], in [2], in assay [3], in [4], in [5] and in [6] was above 100 µM each time. Also, the TGI in assay [7], in assay [8], in [9] and in assay [10] was above 100 µM each time.
